A short description of this series: logP determination by HPLC (EEC Directive 79/831 Annex V.A8), LC-MS.
[1] abbreviates: * acidic range, pH 2.7, 0.1% aqueous formic acid/acetonitrile.
Setting [2] is: pH 2.7, log P (pH2.7), pH 2.7, value given in the preparation text.
Setting [3] is: pH 2.7, logP, * acidic range, pH 2.7, 0.1% aqueous formic acid/acetonitrile.

Structures are written as SMILES.

Regarding `Cc1cc(C(F)(F)F)nn1CC(=O)N1CCC(c2nc(CSC3=NOC(c4ccccc4)C3)cs2)CC1` (racemic) [Compound I-88], the logP under setting [1] is recorded as 3.52*. For orientation: chromatographic logP means a lipophilicity value derived from retention on a column. Higher therefore signals higher lipophilicity. Turning to `Cc1cc(C(F)(F)F)nn1CC(=O)N1CCC(c2nc(CSc3nnnn3-c3ccccc3)cs2)CC1` [Compound I-4, 2-[5-Methyl-3-(trifluoromethyl)-1H-pyrazol-1-yl]-1-[4-(4-{[(1-phenyl-1H-tetrazol-5-yl)sulphanyl]methyl}-1,3-thiazol-2-yl)piperidin-1-yl]ethanone], the chromatographic logP by setting is: under setting [2], 3.25; under setting [3], 3.25; (pH 7.8, logP, ** neutral range, pH 7.8, 0.001 molar aqueous ammonium bicarbonate/acetonitrile) 3.26.

With `Cc1cc(C(F)(F)F)nn1CC(=O)N1CCC(c2nc(CSc3cccc4cccnc34)cs2)CC1` [Compound I-5, 1-(4-{4-[(Quinolin-8-ylsulphanyl)methyl]-1,3-thiazol-2-yl}piperidin-1-yl)-2-[5-methyl-3-(trifluoromethyl)-1H-pyrazol-1-yl]ethanone], the chromatographic logP runs as follows: under setting [2], 3; under setting [3], 3. As for `Cc1cc(C(F)(F)F)nn1CC(=O)N1CCC(c2nc(C[S+]([O-])C3CCCCC3)cs2)CC1` (stereo not shown) [Compound I-11, 1-(4-{4-[(Cyclohexylsulphinyl)methyl]-1,3-thiazol-2-yl}piperidin-1-yl)-2-[5-methyl-3-(trifluoromethyl)-1H-pyrazol-1-yl]ethanone], the chromatographic logP under setting [2] was determined as 2.55 and the chromatographic logP under setting [3] was found to be 2.55.

As to `Cc1cc(C(F)(F)F)nn1CC(=O)N1CCC(c2nc(C[S+]([O-])c3cccc4cccnc34)cs2)CC1` (stereo not shown) [Compound I-12, 1-(4-{4-[(Quinolin-8-ylsulphinyl)methyl]-1,3-thiazol-2-yl}piperidin-1-yl)-2-[5-methyl-3-(trifluoromethyl)-1H-pyrazol-1-yl]ethanone], the chromatographic logP reads like this: under setting [2], 2.48; under setting [3], 2.48. On to `Cc1cc(C(F)(F)F)nn1CC(=O)N1CCC(c2nc(C[S+]([O-])c3nnnn3-c3ccccc3)cs2)CC1` (stereo not shown) [Compound I-14, 2-[5-Methyl-3-(trifluoromethyl)-1H-pyrazol-1-yl]-1-[4-(4-{[(1-phenyl-1H-tetrazol-5-yl)sulphinyl]methyl}-1,3-thiazol-2-yl)piperidin-1-yl]ethanone], for which the chromatographic logP runs as follows: under setting [2], 2.69; under setting [3], 2.69. On to `Cc1ccc(C)c(NC(=O)N2CCC(c3nc(CSC4CCCCC4)cs3)CC2)c1` [Compound I-16], for which the logP under setting [1] is recorded as 4.38*.

On to `O=C(Cn1nc(C(F)F)cc1C(F)F)N1CCC(c2nc(CSc3ccccc3-c3ccccc3)cs2)CC1` [Compound I-19], for which the logP under setting [1] was 4.36*.

Take `Fc1ccc(F)c(NC(=S)N2CCC(c3nc(CSc4nnnn4-c4ccccc4)cs3)CC2)c1` [Compound I-23]: under setting [1], the logP is 3.26*. The same measure, in the same setting: with `COc1ccc(OC)c(NC(=O)N2CCC(c3nc(CSc4nnnn4-c4ccccc4)cs3)CC2)c1` [Compound I-25] the figure was 3.26*; with `O=C(Cn1nc(C(F)(F)F)cc1C(F)(F)F)N1CCC(c2nc(CS(=O)(=O)c3nnnn3-c3ccccc3)cs2)CC1` [Compound I-26], 3.59*; with `Cc1ccc(C)c(CC(=O)N2CCC(c3nc(CSC45CC6CC(CC(C6)C4)C5)cs3)CC2)c1` [Compound I-27], 5.99*. On the same count and under the same terms, with `Cc1ccc(C)c(CC(=O)N2CCC(c3nc(CSc4cccc5ccccc45)cs3)CC2)c1` [Compound I-43] the figure was 4.86*; with `Cc1ccc(C)c(NC(=O)N2CCC(c3nc(CSc4cccc5ccccc45)cs3)CC2)c1` [Compound I-47], 4.37*. The same measure, in the same setting: to `S=C(Nc1cc(Cl)ccc1Cl)N1CCC(c2nc(CSc3nnnn3-c3ccccc3)cs2)CC1` [Compound I-52] belongs 3.77*; to `O=C(Nc1cc(F)ccc1F)N1CCC(c2nc(CSc3nnnn3-c3ccccc3)cs2)CC1` [Compound I-56], 3.27*.
